± gives the expanded uncertainty stated by the source.
How the values were obtained:
[1] = 101.33 kPa, Liquid; for viscosity: Concentric cylinders viscometry; for mass density: Vibrating tube method
[2] = refractive index (Na D-line) (dimensionless); settings: 101.33 kPa, Liquid, Standard Abbe refractometry

CC(O)CO (stereo not given) [1,2-propanediol]
Settings | mass density, [1] [kg/m3] | refractive index, [2] | viscosity, [1] [mPa·s]
288.15 K | 1039.87 ± 0.14 | 1.43425 ± 0.00033 | 82.86 ± 1.8
293.15 K | 1036.25 ± 0.14 | 1.4326 ± 0.00033 | 59.84 ± 1.2
298.15 K | 1032.59 ± 0.13 | 1.43093 ± 0.00033 | 44.19 ± 0.9
303.15 K | 1028.88 ± 0.13 | 1.42927 ± 0.00033 | 33.29 ± 0.68
308.15 K | 1025.14 ± 0.13 | 1.4276 ± 0.00033 | 25.54 ± 0.52
313.15 K | 1021.35 ± 0.13 | 1.4259 ± 0.00033 | 19.92 ± 0.41
318.15 K | 1017.52 ± 0.13 | 1.42422 ± 0.00033 | 15.79 ± 0.32
323.15 K | 1013.66 ± 0.13 | 1.42252 ± 0.00033 | 12.76 ± 0.26
328.15 K | 1009.75 ± 0.13 | 1.42078 ± 0.00033 | 10.35 ± 0.21
333.15 K | 1005.79 ± 0.13 | 1.41909 ± 0.00033 | 8.586 ± 0.18

OCCCO [propan-1,3-diol]
Settings | mass density, [1] [kg/m3] | refractive index, [2] | viscosity, [1] [mPa·s]
288.15 K | 1055.96 ± 0.95 | 1.44073 ± 0.00051 | 68.06 ± 1.5
293.15 K | 1052.87 ± 0.95 | 1.43932 ± 0.00051 | 52.75 ± 1.2
298.15 K | 1049.76 ± 0.94 | 1.43792 ± 0.00051 | 41.97 ± 0.95
303.15 K | 1046.64 ± 0.93 | 1.43654 ± 0.00051 | 33.56 ± 0.76
308.15 K | 1043.5 ± 0.93 | 1.43513 ± 0.00051 | 27.15 ± 0.61
313.15 K | 1040.35 ± 0.92 | 1.43375 ± 0.00051 | 22.22 ± 0.5
318.15 K | 1037.18 ± 0.91 | 1.43232 ± 0.00051 | 18.35 ± 0.41
323.15 K | 1033.98 ± 0.91 | 1.43087 ± 0.00051 | 15.29 ± 0.34
328.15 K | 1030.77 ± 0.9 | 1.42945 ± 0.00051 | 12.84 ± 0.29
333.15 K | 1027.53 ± 0.89 | 1.42803 ± 0.00051 | 10.96 ± 0.25
